Assay results taken from ChEMBL document CHEMBL1201862, “PubChem BioAssay data set” (2004).
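Step 1: Grow cells in 96-well plates. Step 2: Expose to compound for 48 hours at 5 concentrations. Step 3: Interpolate endpoints linearly; if unreached, use highest concentration. GI50 marks 50% less growth.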 Active and inactive are the calls of the source. Cut-off read from the data, not from the text of the source: active = GI50 up to about 1.1 µM and inactive = higher.

Key:
Assay in all cases: NCI tumour cell line growth inhibition, 48 h
U-251 = test system: U-251
SK-MEL-28 = test system: SK-MEL-28
DLD-1 = test system: DLD-1
SF-268 = test system: SF-268
SW-620 = test system: SW-620
UACC-257 = test system: UACC-257
HCC 2998 = test system: HCC 2998
SNB-78 = test system: SNB-78
SK-MEL-2 = test system: SK-MEL-2
KM12 = test system: KM12
HT-29 = test system: HT-29
XF498 = test system: XF498
DMS-114 = test system: DMS-114
CCRF-CEM = test system: CCRF-CEM
NCI-H226 = test system: NCI-H226
RXF 631 = test system: RXF 631
HOP-62 = test system: HOP-62
UACC-62 = test system: UACC-62
SN12C = test system: SN12C
TK-10 = test system: TK-10
LOX IMVI = test system: LOX IMVI
HCT-15 = test system: HCT-15
HOP-92 = test system: HOP-92
NCI-H23 = test system: NCI-H23
A549 = test system: A549
SNB-75 = test system: SNB-75
OVCAR-3 = test system: OVCAR-3
M19-MEL = test system: M19-MEL
Malme-3M = test system: Malme-3M
UO-31 = test system: UO-31
KM-20L2 = test system: KM-20L2
ACHN = test system: ACHN
RPMI-8226 = test system: RPMI-8226
DMS-273 = test system: DMS-273
K562 = test system: K562
IGROV-1 = test system: IGROV-1
OVCAR-8 = test system: OVCAR-8
OVCAR-5 = test system: OVCAR-5
CAKI-1 = test system: CAKI-1
MOLT-4 = test system: MOLT-4
786-0 = test system: 786-0
LXFL 529 = test system: LXFL 529
SF-539 = test system: SF-539
OVCAR-4 = test system: OVCAR-4
HCT-116 = test system: HCT-116
SNB-19 = test system: SNB-19
A498 = test system: A498
NCI-H522 = test system: NCI-H522
HL-60 = test system: HL-60
NCI-H460 = test system: NCI-H460
M14 = test system: M14
SF-295 = test system: SF-295
SK-MEL-5 = test system: SK-MEL-5
COLO 205 = test system: COLO 205
RXF 393 = test system: RXF 393
EKVX = test system: EKVX
SR = test system: SR
SK-OV-3 = test system: SK-OV-3

Q: Which GI50 (U-251) does the source give for `COc1ccc(C2c3cc(OC)c(OC)cc3C(Cc3ccc([N+](=O)[O-])cc3)C2c2ccc([N+](=O)[O-])cc2)cc1OC` (stereo not given) here?
A: > 100 µM (inactive)

Q: What about the GI50 (SK-MEL-28) of the same compound?
A: > 100 µM (inactive)

Q: What about the GI50 (DLD-1) of the same compound?
A: > 100 µM (inactive)

Q: What about the GI50 (SF-268) of the same compound?
A: > 100 µM (inactive)

Q: What about the GI50 (SW-620) of the same compound?
A: > 100 µM (inactive)

Q: And the GI50 (UACC-257)?
A: > 100 µM (inactive)

Q: What about the GI50 (HCC 2998) of the same compound?
A: > 100 µM (inactive)

Q: What about the GI50 (SNB-78) of the same compound?
A: > 100 µM (inactive)

Q: And the GI50 (SK-MEL-2)?
A: > 100 µM (inactive)

Q: What about the GI50 (KM12) of the same compound?
A: > 100 µM (inactive)

Q: What about the GI50 (HT-29) of the same compound?
A: > 100 µM (inactive)

Q: What about the GI50 (XF498) of the same compound?
A: 48.9 µM (inactive)

Q: And the GI50 (DMS-114)?
A: > 100 µM (inactive)

Q: And the GI50 (CCRF-CEM)?
A: > 100 µM (inactive)

Q: And the GI50 (NCI-H226)?
A: > 100 µM (inactive)

Q: And the GI50 (RXF 631)?
A: > 100 µM (inactive)

Q: What about the GI50 (HOP-62) of the same compound?
A: > 100 µM (inactive)

Q: What about the GI50 (UACC-62) of the same compound?
A: > 100 µM (inactive)

Q: What about the GI50 (SN12C) of the same compound?
A: > 100 µM (inactive)

Q: And the GI50 (TK-10)?
A: > 100 µM (inactive)

Q: And the GI50 (LOX IMVI)?
A: > 100 µM (inactive)

Q: And the GI50 (HCT-15)?
A: > 100 µM

Q: And the GI50 (HOP-92)?
A: 0.879 µM (active)

Q: What about the GI50 (NCI-H23) of the same compound?
A: > 100 µM (inactive)

Q: And the GI50 (A549)?
A: > 100 µM (inactive)

Q: And the GI50 (SNB-75)?
A: 49.7 µM (inactive)

Q: And the GI50 (OVCAR-3)?
A: > 100 µM (inactive)

Q: And the GI50 (M19-MEL)?
A: > 100 µM (inactive)

Q: What about the GI50 (Malme-3M) of the same compound?
A: > 100 µM (inactive)

Q: And the GI50 (UO-31)?
A: 59.6 µM (inactive)

Q: What about the GI50 (KM-20L2) of the same compound?
A: > 100 µM (inactive)

Q: And the GI50 (ACHN)?
A: > 100 µM (inactive)

Q: And the GI50 (RPMI-8226)?
A: > 100 µM (inactive)

Q: And the GI50 (DMS-273)?
A: > 100 µM (inactive)

Q: What about the GI50 (K562) of the same compound?
A: > 100 µM (inactive)

Q: And the GI50 (IGROV-1)?
A: > 100 µM (inactive)

Q: What about the GI50 (OVCAR-8) of the same compound?
A: > 100 µM (inactive)

Q: And the GI50 (OVCAR-5)?
A: > 100 µM (inactive)

Q: And the GI50 (CAKI-1)?
A: > 100 µM (inactive)

Q: And the GI50 (MOLT-4)?
A: > 100 µM (inactive)

Q: What about the GI50 (786-0) of the same compound?
A: > 100 µM (inactive)

Q: What about the GI50 (LXFL 529) of the same compound?
A: > 100 µM (inactive)

Q: And the GI50 (SF-539)?
A: > 100 µM (inactive)

Q: And the GI50 (OVCAR-4)?
A: > 100 µM (inactive)

Q: What about the GI50 (HCT-116) of the same compound?
A: 14 µM (inactive)

Q: What about the GI50 (SNB-19) of the same compound?
A: > 100 µM (inactive)

Q: And the GI50 (A498)?
A: > 100 µM (inactive)

Q: What about the GI50 (NCI-H522) of the same compound?
A: 51.3 µM (inactive)

Q: And the GI50 (HL-60)?
A: > 100 µM (inactive)

Q: And the GI50 (NCI-H460)?
A: > 100 µM (inactive)

Q: And the GI50 (M14)?
A: > 100 µM (inactive)

Q: What about the GI50 (SF-295) of the same compound?
A: > 100 µM (inactive)

Q: What about the GI50 (SK-MEL-5) of the same compound?
A: > 100 µM (inactive)

Q: And the GI50 (COLO 205)?
A: > 100 µM (inactive)

Q: And the GI50 (RXF 393)?
A: 27.7 µM (inactive)

Q: What about the GI50 (EKVX) of the same compound?
A: > 100 µM (inactive)

Q: How did the GI50 (U-251) turn out when `CC1CC2C3CC(F)C4=CC(=O)C=CC4(C)C3(F)C(O)CC2(C)C1(O)C(=O)CO` (stereo not given) was run?
A: > 100 µM (inactive)

Q: What about the GI50 (SK-MEL-28) of the same compound?
A: > 100 µM (inactive)

Q: And the GI50 (DLD-1)?
A: > 100 µM (inactive)

Q: And the GI50 (SF-268)?
A: > 100 µM (inactive)

Q: What about the GI50 (SW-620) of the same compound?
A: > 100 µM (inactive)

Q: And the GI50 (UACC-257)?
A: > 100 µM (inactive)

Q: What about the GI50 (HCC 2998) of the same compound?
A: > 100 µM (inactive)

Q: And the GI50 (SNB-78)?
A: > 100 µM (inactive)

Q: And the GI50 (SK-MEL-2)?
A: > 100 µM (inactive)

Q: What about the GI50 (KM12) of the same compound?
A: > 100 µM (inactive)

Q: What about the GI50 (HT-29) of the same compound?
A: > 100 µM (inactive)

Q: What about the GI50 (XF498) of the same compound?
A: > 100 µM (inactive)

Q: And the GI50 (DMS-114)?
A: > 100 µM (inactive)

Q: And the GI50 (CCRF-CEM)?
A: 0.0112 µM (active)

Q: What about the GI50 (NCI-H226) of the same compound?
A: > 100 µM (inactive)

Q: And the GI50 (RXF 631)?
A: > 100 µM (inactive)

Q: What about the GI50 (HOP-62) of the same compound?
A: > 100 µM (inactive)

Q: What about the GI50 (UACC-62) of the same compound?
A: > 100 µM (inactive)

Q: What about the GI50 (TK-10) of the same compound?
A: > 100 µM (inactive)

Q: And the GI50 (LOX IMVI)?
A: > 100 µM (inactive)

Q: What about the GI50 (HCT-15) of the same compound?
A: > 100 µM

Q: And the GI50 (HOP-92)?
A: > 100 µM (inactive)

Q: What about the GI50 (NCI-H23) of the same compound?
A: > 100 µM (inactive)

Q: What about the GI50 (A549) of the same compound?
A: > 100 µM (inactive)

Q: And the GI50 (SNB-75)?
A: > 100 µM (inactive)

Q: What about the GI50 (OVCAR-3) of the same compound?
A: > 100 µM (inactive)

Q: And the GI50 (M19-MEL)?
A: > 100 µM (inactive)

Q: What about the GI50 (Malme-3M) of the same compound?
A: > 100 µM (inactive)

Q: What about the GI50 (UO-31) of the same compound?
A: > 100 µM (inactive)

Q: And the GI50 (KM-20L2)?
A: > 100 µM (inactive)

Q: What about the GI50 (ACHN) of the same compound?
A: > 100 µM (inactive)

Q: And the GI50 (RPMI-8226)?
A: > 100 µM (inactive)

Q: What about the GI50 (DMS-273) of the same compound?
A: > 100 µM (inactive)

Q: What about the GI50 (K562) of the same compound?
A: > 100 µM (inactive)

Q: What about the GI50 (IGROV-1) of the same compound?
A: > 100 µM (inactive)

Q: And the GI50 (OVCAR-5)?
A: > 10 µM (inactive)

Q: And the GI50 (CAKI-1)?
A: > 100 µM (inactive)

Q: And the GI50 (SR)?
A: > 100 µM (inactive)

Q: What about the GI50 (MOLT-4) of the same compound?
A: > 100 µM (inactive)

Q: And the GI50 (786-0)?
A: > 100 µM (inactive)

Q: And the GI50 (SF-539)?
A: > 100 µM (inactive)

Q: And the GI50 (OVCAR-4)?
A: > 100 µM (inactive)

Q: And the GI50 (HCT-116)?
A: > 100 µM (inactive)

Q: What about the GI50 (SNB-19) of the same compound?
A: > 100 µM (inactive)

Q: And the GI50 (SK-OV-3)?
A: < 10 nM (active)

Q: And the GI50 (NCI-H522)?
A: > 100 µM (inactive)

Q: What about the GI50 (HL-60) of the same compound?
A: > 100 µM (inactive)

Q: And the GI50 (NCI-H460)?
A: > 100 µM (inactive)

Q: What about the GI50 (M14) of the same compound?
A: > 100 µM (inactive)

Q: What about the GI50 (SF-295) of the same compound?
A: > 100 µM (inactive)

Q: What about the GI50 (SK-MEL-5) of the same compound?
A: > 100 µM (inactive)

Q: What about the GI50 (COLO 205) of the same compound?
A: > 100 µM (inactive)

Q: And the GI50 (RXF 393)?
A: > 100 µM (inactive)

Q: What about the GI50 (EKVX) of the same compound?
A: > 100 µM (inactive)
